Reference: patent publication US20250249001A1, “METHODS OF TREATING SUBSTANCE USE DISORDER WITH 4-(3-CYANOPHENYL)-6-PYRIDINYLPYRIMIDINE MGLU5 NEGATIVE ALLOSTERIC MODULATORS” (Tempero Bio, Inc., priority 2022, published 2025)

Columns and labels:
[1] = tested on: cocaine-induced CPP in male SD rats; type: in vivo, Sprague Dawley rats; conditions: cocaine 10 mg/kg IP on days 3, 5, 7, 9; day 10 bias test
Experimental: Animals: Male Sprague Dawley rats (Envigo, IN, 275-299 g) were group housed upon arrival (2 per cage). All rats were examined and handled to assure adequate health and suitability. During the study, a 12/12 light/dark cycle was maintained (lights switched on at 7:00 am). The room temperature was maintained between […] and 23° C. with a relative humidity maintained around 50%. Chow (LabDiet #5001) and water were provided ad libitum for the duration of the study. The test was performed during the animal's light cycle phase.
Cocaine (10 mg/kg) was dissolved in saline and injected IP at a dose volume of 1 ml/kg. Cocaine was administered on training days 3, 5, 7 and 9 immediately prior to training.
3-((2-Methyl-4-thiazolyl)ethynyl)pyridine (MTEP, 3 mg/kg), was dissolved in saline and injected IP on day 10 (bias test) at a dose volume of 1 ml/kg 30 minutes prior to testing.
Compound 1 (1, 3 and 10 mg/kg) was formulated in 10% Solutol HS15 and 90% (10% aqueous 2-hydroxypropyl-β-cyclodextrin) and injected IP on day 10 (bias test) at a dose volume of 2 ml/kg. Compound 1 was administered 30 minutes prior to testing.
The chamber used in this study contained two compartments [(60 cm (L)×40 cm (W)×24 cm (H)]. The compartment used for each animal and drug pairing was assigned and counterbalanced in advance and adjusted as necessary in the rebalancing procedure after day 1 (see details below). Within the chamber, visual and physical features were used to create the two distinct compartments. For example, one compartment may have a flat plastic floor with white stripes and the other may have a textured floor and black stripes. The chambers were cleaned with 70% alcohol in between runs.
Testing sessions were recorded on days 1 and 10 to determine time spent (seconds) in each chamber.
Day 1 Pre-conditioning/Habituation: Animals are allowed to explore the entire testing chamber freely for 20 min. Animals that display a strong preference for one compartment (>75% time spent in one compartment) are excluded.
Rebalancing Procedure: Animals are rebalanced following day 1 scoring if the difference between groups for time spent in one compartment is greater than 15%.
Days 2-9 Conditioning: All animals are treated with saline on days 2, 4, 6, and 8 and with cocaine or saline on days 3, 5, 7, and 9 depending on their assigned group. Animals are confined to their assigned compartment (saline- or cocaine-paired compartment) for 20 minutes following dosing.
Day 10 Post-conditioning bias test: Animals are dosed once with either saline, MTEP or Compound 1 (1, 3 and 10 mg/kg) according to their assigned. Following dosing, animals are allowed to explore the testing chamber freely for 20 minutes with the compartment dividing door open. Their activity exploring the chamber is recorded for analysis.
Statistical Analysis: Statistical analysis was conducted using GraphPad Prism 9. Scorers blinded to the treatment groups scored the amount of time each animal spent exploring each chamber on days 1 and 10. For bias test data, a one-way analysis of variance (ANOVA) followed by Dunnett's post hoc test was used. Significance was set at p<0.05 and values exceeding two standard deviations of the mean were considered statistical outliers and were excluded from the analysis. Additionally, if an animal spent >85% or <15% of the time in one compartment even without any obvious signs of sedation or locomotor dysfunction, they were excluded from the analysis.

[2] = tested on: operant alcohol self-administration in Wistar rats; experiment: Operant alcohol self-administration (FR-1), acute treatment; type: in vivo; conditions: 3 mg/kg IP, 1-h pretreatment
Description: Twelve operant conditioning chambers designed for rats (30.5 cm×24.1 cm×21.0 cm; Med Associates, Georgia, VT) were located within sound-attenuating cubicles in a devoted room to limit extraneous potential impact by extraneous environmental variables. Each cubicle was equipped with an exhaust fan that provided ventilation and masked external sounds. The chambers were electronically interfaced to a Microsoft Windows based computer that was programmed using investigator developed software to control sessions and record number of lever press responses at 100-ms intervals.
The right wall of each chamber contained a liquid receptacle and a response lever (Med Associates) that was termed the active lever. Lever press responses on the active lever activated a syringe pump (PHM-100, Med Associates) that delivered 0.1 ml of alcohol solution (ethanol 8% v/v+sucrose 2% w/v) into the receptacle over a 1.66-s period. Head entries into the liquid receptacle were recorded when an infrared photo beam was broken. A stimulus light located above the response lever was illuminated during pump activation. Lever presses during reinforcer delivery were recorded but produced no programmed consequence. […] Behavior on this lever serves as a control for motor disruptions and other nonspecific effects of test compounds. […]
Testing the efficacy of Compound 1 to reduce the reinforcing, or rewarding, effects of alcohol. Following establishment of stable baseline self-administration behavior, effects of pre-session treatment with the novel mGluR5 negative allosteric modulator Compound 1 (0, 0.3, 1, 3, and 10 mg/kg, IP) were evaluated on operant alcohol self-administration behavior (n=12 rats). […] Parameters of operant performance were measured, including total lever press responses, number of headpokes into the liquid receptacle, and rate of operant responding, which is a direct measure of positive reinforcement function. […]

[3] = tested on: voluntary home-cage alcohol drinking by Wistar rats; experiment: Home-cage two-bottle choice alcohol drinking, acute treatment; type: in vivo
Experimental: Animals: Male Wistar rats (Charles River Laboratories, INC) were used in these studies. Rat housing and testing was conducted at the University of North Carolina at Chapel Hill (UNC-CH) School of Medicine in a state-of-the-art rodent vivarium approved by the Association for Assessment and Accreditation of Laboratory Animal Care International (AAALAC). Rat health was monitored daily by study investigators and veterinarians in the Division of Comparative Medicine UNC. All experimental procedures were carried out in accordance with the NIH Guide to Care and Use of Laboratory Animals (Committee for the Update of the Guide for the Care and Use of Laboratory Animals, 2011) and institutional guidelines.
Rats were housed individually in standard Plexiglas cages with standard rodent food and water available ad libitum. Upon arrival from the vendor, rats were given 7 days to acclimate to the vivarium during which they were weighed and handled by an investigator each day to monitor general health and habituate them to human contact. Rats were then weighed each day within 1-h of experimental procedures to calculate drug dosages relative to body weight. […] The colony was maintained at […] on a 12-hour light/dark cycle, with the lights on from 10 AM-10 PM. All behavioral experiments were conducted during the light portion of the light cycle.
Home-cage alcohol drinking method. Oral alcohol and water intake were examined using a two-bottle choice protocol, which is standard in the field and commonly used in our laboratory. Male Wistar rats (n=12) were first adapted to drinking from a 50 ml conical tube fitted with a standard stainless-steel ball bearing sipper tube that limits spillage. Then, two bottles were place on the cage daily. One bottle contained an alcohol solution and the other contained water. Bottles containing fresh solutions were weighed daily before and after a 24 hr access period. After drug treatment, bottles were weighed after 1 hr and 24 hrs of access. Each week, rats had 4-5 days of sweetened alcohol and water available and the remaining days only water.
Briefly, rats were first exposed to alcohol (10% v/v)+sucrose (5% w/v). versus water in the two bottles. Then, over a period of 6-weeks, the concentrations of alcohol and sucrose were gradually adjusted to alcohol (8% v/v)+sucrose (2% w/v) to achieve intake of pharmacologically relevant doses of alcohol. Rats were maintained at this concentration for the duration of the experiment for both acute (3.1.a) and chronic (3.1.b) home-cage drinking studies. Use of sweetened alcohol solutions in preclinical research provides face validity to the binge-intoxication stage of alcohol addiction in humans where sweeteners are commonly added to alcohol.
Compound 1 treatment. After establishing baseline intake of sweetened alcohol and water, rats were habituated to i.p. injections. All rats (N=12) were administered 3 habituation injections of vehicle (10% w/v kolliphor in BCD (10%)) prior to the Compound 1 dose response curve and alcohol intake was measured. Then, the Compound 1 dose response curve was conducted with dose order randomized according to a modified Latin-Square design. Rats were given a minimum of 1-2 days between injections to ensure normal drinking was re-established in absence of drug administration. Each dose of Compound 1 (0-10 mg/kg) was administered via i.p. injection and rats were placed back in the home-cage for 1 hr prior to the return of sweetened alcohol and water. Alcohol intake was measured after 1-h and 24-hrs of access in grams by weighing the drinking bottles. Data were excluded from 1 rat that emptied both bottles fully each day without drinking the solutions; thus, results are presented for a final group of N=11 rats.
Efficacy comparisons to MPEP and Naltrexone. […]

SMILES | Percent time in compound-paired compartment, Mean Diff., Cocaine - Saline vs. Saline - Saline [1] | Preference Scores (time difference drug-paired minus saline-paired), Mean Diff., Cocaine - Saline vs. Saline - Saline [1] | EtOH reinforced responses vs vehicle, multiple comparisons [2] | H2O intake after 24-hr access ([3]; 3 mg/kg i.p., Compound 1 or comparison compounds) | water intake after 1-hr access ([3]; Compound 1 0-10 mg/kg, or Compound 1, MPEP, Naltrexone 3 mg/kg i.p.) | alcohol intake at the 24-hr measurement interval, comparison of equivalent doses ([3]; each drug 3 mg/kg i.p. acute) | alcohol drinking at 1-hr of access vs vehicle control, positive control comparison ([3]; each drug 3 mg/kg i.p. acute, N=11)
COC(=O)[C@H]1[C@@H](OC(=O)c2ccccc2)C[C@@H]2CC[C@H]1N2C [Cocaine] | 13.86% | 332.9 s | – | – | – | – | –
O=C1CC[C@@]2(O)[C@H]3Cc4ccc(O)c5c4[C@@]2(CCN3CC2CC2)[C@H]1O5 [Naltrexone, reference compound] | – | – | reduced EtOH reinforced responses | no effect | did not reach statistical significance | only Compound 1 (3 mg/kg) maintained efficacy | significantly decreased alcohol drinking
